In ChEMBL document CHEMBL5727878, “Triazole furan compounds as agonists of the APJ receptor” (2020):

Target: T1, Apelin receptor (Homo sapiens, UniProt P35414)
T1 sequence (P35414 whole entry): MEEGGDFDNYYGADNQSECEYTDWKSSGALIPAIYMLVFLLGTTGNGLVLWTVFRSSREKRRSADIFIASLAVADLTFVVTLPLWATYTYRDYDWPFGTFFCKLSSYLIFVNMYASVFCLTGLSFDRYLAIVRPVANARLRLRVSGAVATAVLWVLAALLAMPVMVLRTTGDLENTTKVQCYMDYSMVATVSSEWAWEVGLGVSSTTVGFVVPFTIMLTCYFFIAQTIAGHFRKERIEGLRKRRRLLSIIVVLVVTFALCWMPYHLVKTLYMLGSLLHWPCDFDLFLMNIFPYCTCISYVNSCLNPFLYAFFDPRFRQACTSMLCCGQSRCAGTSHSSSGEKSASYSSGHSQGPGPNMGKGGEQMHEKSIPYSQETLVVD
Assay: GTPγS Binding: The human APJ receptor was cloned by polymerase chain reaction and the gene encoding the receptor was subcloned in pFLAG-CMV-3 expression vector (Sigma, Saint Louis, Mo. USA) in-house at Amgen. A GTPγS binding assay was performed on membranes prepared from CHO cells stably expressing human APJ receptor. The optimum experimental conditions for the concentrations of GDP, MgCl2, and NaCl in the assay buffer were initially determined. The assay was performed in assay buffer [20 mM HEPES, pH 7.5, 5 mM MgCl2, and 0.1% (w/v) BSA with 200 mM NaCl, 3 μM GDP] and membranes expressing human APJ receptor/well along with WGA PS beads. The reaction was initiated by addition of 0.2 nM [35S]GTPγS in the absence or presence of various ligands and incubated at RT for 90 min. Nonspecific binding was determined in the presence of 100 μM GTPγS and was always less than 0.2% of total binding.

SMILES	EC50
COc1cc[nH]c(=O)c1-n1c(NS(=O)(=O)[C@@H](C)[C@H](C)c2ncc(C)cn2)nnc1-c1ccc(C)o1 (single isomer, unassigned; form 2)	0.037 µM
COc1cc[nH]c(=O)c1-n1c(NS(=O)(=O)[C@@H](C)[C@H](C)c2ncc(F)cn2)nnc1-c1ccc(C)o1 (single isomer, unassigned; form 2)	0.051 µM
